Measured values published in patent US20240158446A1, “CYCLIC COMPOUND HAVING SELECTIVE INHIBITORY ACTION ON KRAS OVER HRAS AND NRAS” (CHUGAI SEIYAKU KABUSHIKI KAISHA, priority 2021, published 2024).
pKd: −log10 of the molar value. Read-outs that look alike come from different tables or passages of the source. Where a SMILES comes first, the peptide text is derived from it. Bridges are numbered along the chain shown (N, C = ends). [ ]: non-standard residue; d: D form. The star is where a group is joined. hPhe(3-Cl-4-CF3) = N[C@@H](CCc1ccc(C(F)(F)F)c(Cl)c1)C(=O)O; NPrPhe(4-CF3) = CCCN[C@@H](Cc1ccc(C(F)(F)F)cc1)C(=O)O; Abu(4,4,4-F3) = N[C@@H](CC(F)(F)F)C(=O)O; NMeGly(cPent) = CN[C@H](C(=O)O)C1CCCC1; Pro(4,4-F2) = O=C(O)[C@@H]1CC(F)(F)CN1; NMeD = CN[C@@H](CC(=O)O)C(=O)O; NMeL = CN[C@@H](CC(C)C)C(=O)O; Morpholide = C1CN(*)CCO1; NMeA = CN[C@@H](C)C(=O)O; Ac5c = NC1(C(=O)O)CCCC1; Aze = O=C(O)[C@@H]1CCN1; NPrGly = CCCNCC(=O)O; NEtG = CCNCC(=O)O; Sar = CNCC(=O)O

What was measured:
[1] = target: GDP-bound HRAS wild-type protein (Homo sapiens, UniProt P01112); test: Binding to HRAS by surface plasmon resonance (SPR), Single Cycle Kinetics; conditions: for HRAS/KRAS (ratio of KD value for HRAS to KD value for KRAS) / HRAS/KRAS (ratio of KD value with respect to HRAS to KD value with respect to KRAS): GDP-bound HRAS wild-type protein vs GDP-bound KRAS wild-type protein; for HRAS/KRAS (ratio of KD value with respect to GDP-bound HRAS wild-type protein to KD value with respect to KRAS): SPR KD ratio HRAS/KRAS, class symbols
Chain of GDP-bound HRAS wild-type protein (P01112 whole entry): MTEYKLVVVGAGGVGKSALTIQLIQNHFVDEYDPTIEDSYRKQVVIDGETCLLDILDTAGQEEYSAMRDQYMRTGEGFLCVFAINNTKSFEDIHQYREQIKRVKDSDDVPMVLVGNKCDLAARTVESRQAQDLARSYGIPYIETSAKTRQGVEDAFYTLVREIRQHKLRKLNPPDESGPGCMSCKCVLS

[2] = target: GDP-bound KRAS wild-type protein (Homo sapiens, UniProt P01116); test: Binding to KRAS by surface plasmon resonance (SPR), Single Cycle Kinetics; conditions: GDP-bound KRAS wild-type protein, read-out: KRAS KD
Chain of GDP-bound KRAS wild-type protein (P01116 whole entry): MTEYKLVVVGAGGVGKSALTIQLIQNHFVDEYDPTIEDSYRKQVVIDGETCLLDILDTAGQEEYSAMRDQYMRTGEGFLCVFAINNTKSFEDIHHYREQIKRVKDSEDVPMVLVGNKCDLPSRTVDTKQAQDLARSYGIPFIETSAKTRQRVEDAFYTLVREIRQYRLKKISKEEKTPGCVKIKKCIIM

[3] = target: GDP-bound NRAS wild-type protein (Homo sapiens, UniProt P01111); test: Binding to NRAS by surface plasmon resonance (SPR), Single Cycle Kinetics; conditions: for NRAS/KRAS (ratio of KD value for NRAS to KD value for KRAS) / NRAS/KRAS (ratio of KD value with respect to NRAS to KD value with respect to KRAS): GDP-bound NRAS wild-type protein vs GDP-bound KRAS wild-type protein; for NRAS/KRAS (ratio of KD value with respect to GDP-bound NRAS wild-type protein to KD value with respect to KRAS): SPR KD ratio NRAS/KRAS, class symbols
Chain of GDP-bound NRAS wild-type protein (P01111 whole entry): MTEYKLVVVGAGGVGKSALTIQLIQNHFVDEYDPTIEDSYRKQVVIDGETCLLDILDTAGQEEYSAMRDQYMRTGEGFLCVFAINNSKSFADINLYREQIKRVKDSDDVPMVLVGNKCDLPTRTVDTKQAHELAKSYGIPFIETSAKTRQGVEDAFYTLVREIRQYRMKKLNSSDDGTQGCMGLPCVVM

[4] = SPR Single Cycle Kinetics, 1:1 binding model

Row | pKd [2, 4] | Compound | HRAS/KRAS (ratio of KD value for HRAS to KD value for KRAS) ([1]; SPR) | NRAS/KRAS (ratio of KD value for NRAS to KD value for KRAS) ([3]; SPR) | also measured
1 |  | CCO[C@@H]1C[C@H]2C(=O)NC3(CCC3)C(=O)N(C)[C@@H](C3CCCC3)C(=O)N(C)[C@H](C(=O)N3CCOCC3)CC(=O)N(C)[C@@H](CC)C(=O)N[C@@H]([C@@H](C)CC)C(=O)N(C)CC(=O)N(C)[C@H]3C[C@@H](C)CCN(C3=O)[C@@H](Cc3ccc(C(F)(F)F)cc3)C(=O)N(C)CC(=O)N[C@@H](CCc3cc(F)c(C(F)(F)F)c(F)c3)C(=O)N2C1 [PP1027] | B (a compound having 3 or more and less than 10 is denoted as B) | C (A compound having a KD ratio of 0.1 or more and less than 3 is denoted as C) | pKd ([2]; SPR, Single Cycle Kinetics): 10.25
2 | 9.31 | CCCN1C(=O)[C@@H]2CCN2C(=O)[C@H](C)N(C)C(=O)[C@H]([C@@H](C)CC)NC(=O)[C@H](CC(C)C)N(C)C(=O)C[C@@H](C(=O)N(C)C)NC(=O)[C@H](C2CCCC2)N(C)C(=O)C2(CCCC2)NC(=O)[C@@H]2CC(F)(F)CN2C(=O)[C@H](CCc2ccc(C(F)(F)F)c(Cl)c2)NC(=O)CN(C)C(=O)[C@@H]1Cc1ccc(C(F)(F)F)cc1 [PP0381] ([NMeL]I[NMeA][Aze][NPrPhe(4-CF3)][Sar][hPhe(3-Cl-4-CF3)][Pro(4,4-F2)][Ac5c][NMeGly(cPent)]D-NMe2; lactam N-11) | B (a compound having 3 or more and less than 10 is denoted as B) | C (A compound having a KD ratio of 0.1 or more and less than 3 is denoted as C) | 
3 | 8.49 | CC[C@H](C)[C@@H]1NC(=O)[C@H](CC(C)C)N(C)C(=O)C[C@@H](C(=O)N2CCOCC2)N(C)C(=O)[C@H](C2CCCC2)N(C)C(=O)C2(CCCC2)NC(=O)[C@@H]2CCCN2C(=O)[C@H](CCc2cc(F)c(C(F)(F)F)c(F)c2)NC(=O)CN(C)C(=O)[C@H](Cc2ccc(C(F)(F)F)cc2)N2CCCCC[C@@H](C2=O)N(C)C(=O)[C@@H]2CCN2C1=O [PP0484] |  |  | HRAS/KRAS (ratio of KD value with respect to HRAS to KD value with respect to KRAS) ([1]; SPR): B (a compound having 3 or more and less than 10 is denoted as B); NRAS/KRAS (ratio of KD value with respect to NRAS to KD value with respect to KRAS) ([3]; SPR): A (a compound having 10 or more and less than 20 is denoted as A)
4 |  | CCO[C@@H]1C[C@H]2C(=O)NC3(CC(C)(C)C3)C(=O)N(C)[C@@H](C3CCCC3)C(=O)N(C)[C@H](C(=O)N(C)CC)CC(=O)N(C)[C@H]3CCCC/C=C/c4ccc(cc4)C[C@@H](C(=O)N(C)CC(=O)N[C@@H](CCc4ccc(C(F)(F)F)c(OC)c4)C(=O)N2C1)N1CC/C=C\C[C@@H](C1=O)N(C)C(=O)CN(C)C(=O)[C@H]([C@@H](C)CC)NC3=O [PP1830, (1S,7S,11R,13S,19S,22S,26S,29S,35S,37Z,47E)-19-cyclopentyl-11-ethoxy-N-ethyl-7-[2-[3-methoxy-4-(trifluoromethyl)phenyl]ethyl]-N,3,3′,3′,18,21,25,31,34-nonamethyl-29-[(1S)-1-methylpropyl]-2,5,8,14,17,20,24,27,30,33,55-undecaoxo-spiro[3,6,9,15,18,21,25,28,31,34,41-undecazapentacyclo[24.15.11.2^43,46.1^35,41.0^9,13]pentapentaconta-37,43(54),44,46(53),47-pentaene-16,1′-cyclobutane]-22-carboxamide] |  |  | HRAS/KRAS (KD ratio) ([1]; ratio of KD for GDP-bound HRAS wild-type protein to KD for KRAS, SPR): B (a compound having 3 or more and less than 10 is denoted as B); pKd ([2]; SPR, Single Cycle Kinetics): 10.27; NRAS/KRAS (KD ratio) ([3]; ratio of KD for GDP-bound NRAS wild-type protein to KD for KRAS, SPR): A (a compound having 10 or more and less than 20 is denoted as A)
5 | 8.66 | CCCN1C(=O)CN(C)C(=O)CN(CC)C(=O)[C@H](CC(F)(F)F)NC(=O)[C@H](CC(C)C)N(C)C(=O)C[C@@H](C(=O)N2CCOCC2)N(C)C(=O)[C@H](C2CCCC2)N(C)C(=O)C2(CCCC2)NC(=O)[C@@H]2CCCN2C(=O)[C@H](CCc2ccc(C(F)(F)F)c(Cl)c2)NC(=O)CN(C)C(=O)[C@@H]1Cc1ccc(C(F)(F)F)cc1 [PP0291] ([NMeL][Abu(4,4,4-F3)][NEtG][Sar][NPrPhe(4-CF3)][Sar][hPhe(3-Cl-4-CF3)]P[Ac5c][NMeGly(cPent)][NMeD]-Morpholide; lactam N-11) | B (a compound having 3 or more and less than 10 is denoted as B) | B (a compound having 3 or more and less than 10 is denoted as B) | 
6 | 9.06 | CCO[C@@H]1C[C@H]2C(=O)NC3(CCC3)C(=O)N(C)[C@@H](C3CCCC3)C(=O)N(C)[C@H](C(=O)N(C)C)CC(=O)N(C)[C@@H](CC3CCCC3)C(=O)N[C@@H]([C@@H](C)CC)C(=O)N(C)CC(=O)N(C)[C@H]3C/C=C\CCN(C3=O)[C@@H](Cc3ccc(C)cc3)C(=O)N(C)CC(=O)N[C@@H](CCc3ccc(C4CC4)c(F)c3)C(=O)N2C1 [PP2683] |  |  | HRAS/KRAS (ratio of KD value with respect to GDP-bound HRAS wild-type protein to KD value with respect to KRAS) [1]: A (a compound having 10 or more and less than 20 is denoted as A); NRAS/KRAS (ratio of KD value with respect to GDP-bound NRAS wild-type protein to KD value with respect to KRAS) [3]: A (a compound having 10 or more and less than 20 is denoted as A)
7 | 8.32 | CCCN1CC(=O)NC2(CCCC2)C(=O)N(C)[C@@H](C2CCCC2)C(=O)N(C)[C@H](C(=O)N2CCOCC2)CC(=O)N(C)[C@@H](CC(C)C)C(=O)N[C@@H]([C@@H](C)CC)C(=O)N(CC)CC(=O)N(C)CC(=O)N(CCC)[C@@H](Cc2ccc(C(F)(F)F)cc2)C(=O)N(C)CC(=O)N[C@@H](CCc2ccc(C(F)(F)F)c(Cl)c2)C1=O [PP0301] ([NMeL]I[NEtG][Sar][NPrPhe(4-CF3)][Sar][hPhe(3-Cl-4-CF3)][NPrGly][Ac5c][NMeGly(cPent)][NMeD]-Morpholide; lactam N-11) | C (A compound having a KD ratio of 0.1 or more and less than 3 is denoted as C) | B (a compound having 3 or more and less than 10 is denoted as B) | 
8 |  | CCO[C@@H]1C[C@H]2C(=O)NC3(CCC3)C(=O)N(C)[C@@H](C3CCCC3)C(=O)N(C)C(C(C)C)CC(=O)N(C)[C@@H](CC)C(=O)N[C@@H]([C@@H](C)CC)C(=O)N(C)CC(=O)N(C)[C@H]3C/C=C\CCN(C3=O)[C@@H](Cc3ccc(C(F)(F)F)cc3)C(=O)N(C)CC(=O)N[C@@H](CCc3cc(F)c(C(F)(F)F)c(F)c3)C(=O)N2C1 (stereo partly drawn) [PP1590] |  |  | HRAS/KRAS (ratio of KD value for HRAS to KD value for KRAS) ([1]; SPR, KD ratio class): B (a compound having 3 or more and less than 10 is denoted as B); pKd ([2]; SPR, Single Cycle Kinetics, 1:1 binding model): 9.54; NRAS/KRAS (ratio of KD value for NRAS to KD value for KRAS) ([3]; SPR, KD ratio class): A (a compound having 10 or more and less than 20 is denoted as A)
9 | 10.77 | CCO[C@@H]1C[C@H]2C(=O)NC3(CCCC3)C(=O)N(C)[C@@H](C3CCCC3)C(=O)N(C)[C@H](C(=O)N(C)C)CC(=O)N(C)[C@@H](CC(C)C)C(=O)N[C@@H]([C@@H](C)CC)C(=O)N(C)CC(=O)N(C)[C@H]3CCCCN(C3=O)[C@@H](Cc3ccc(C(F)(F)F)cc3)C(=O)N(C)CC(=O)N[C@@H](CCc3cc(F)c(C(F)(F)F)c(F)c3)C(=O)N2C1 [PP0579] |  |  | HRAS/KRAS (ratio of KD value with respect to HRAS to KD value with respect to KRAS) ([1]; SPR): B (a compound having 3 or more and less than 10 is denoted as B); NRAS/KRAS (ratio of KD value with respect to NRAS to KD value with respect to KRAS) ([3]; SPR): C (A compound having a KD ratio of 0.1 or more and less than 3 is denoted as C)
10 | 9.12 | CCC[C@H]1C(=O)N[C@@H]([C@@H](C)CC)C(=O)N(C)CC(=O)N(C)[C@H]2C/C=C\CCN(C2=O)[C@@H](Cc2ccc(C(F)(F)F)cc2)C(=O)N(C)CC(=O)N[C@@H](CCc2cc(Cl)c3c(ccn3C)c2)C(=O)N2C[C@H](OCC)C[C@H]2C(=O)NC2(CC(C)(C)C2)C(=O)N(C)[C@@H](C2CCCC2)C(=O)N(C)[C@H](C(=O)N(C)C)CC(=O)N1C [PP2950] |  |  | HRAS/KRAS (ratio of KD value with respect to GDP-bound HRAS wild-type protein to KD value with respect to KRAS) [1]: A (a compound having 10 or more and less than 20 is denoted as A); NRAS/KRAS (ratio of KD value with respect to GDP-bound NRAS wild-type protein to KD value with respect to KRAS) [3]: A (a compound having 10 or more and less than 20 is denoted as A)
11 | 8.96 | CC[C@H](C)[C@@H]1NC(=O)[C@H](CC(C)C)N(C)C(=O)C[C@@H](C(=O)N2CCOCC2)N(C)C(=O)[C@H](CC(F)(F)F)N(C)C(=O)C2(CCCC2)NC(=O)[C@@H]2CCCN2C(=O)[C@H](CCc2cc(F)c(C(F)(F)F)c(F)c2)NC(=O)CN(C)C(=O)[C@H](Cc2ccc(C(F)(F)F)cc2)N2CCCC[C@@H](C2=O)N(C)C(=O)CN(C)C1=O [PP0568] |  |  | HRAS/KRAS (ratio of KD value with respect to HRAS to KD value with respect to KRAS) ([1]; SPR): B (a compound having 3 or more and less than 10 is denoted as B); NRAS/KRAS (ratio of KD value with respect to NRAS to KD value with respect to KRAS) ([3]; SPR): B (a compound having 3 or more and less than 10 is denoted as B)
12 |  | CCO[C@@H]1C[C@H]2C(=O)NC3(CCC3)C(=O)N(C)[C@@H](C(CC)CC)C(=O)N(C)[C@H](C(=O)N3CCCC3)CC(=O)N(C)[C@H]3CCCC/C=C/c4ccc(cc4)C[C@@H](C(=O)N(C)CC(=O)N[C@@H](CCc4ccc(Cl)c(Cl)c4)C(=O)N2C1)N1CC/C=C\C[C@@H](C1=O)N(C)C(=O)CN(C)C(=O)[C@H]([C@@H](C)CC)NC3=O [PP3047, (1S,7S,11R,13S,19S,22S,26S,29S,35S,37Z,47E)-7-[2-(3,4-dichlorophenyl)ethyl]-11-ethoxy-19-(1-ethylpropyl)-3,18,21,25,31,34-hexamethyl-29-[(1S)-1-methylpropyl]-22-(pyrrolidine-1-carbonyl)spiro[3,6,9,15,18,21,25,28,31,34,41-undecazapentacyclo[24.15.11.2^43,46.1^35,41.0^9,13]pentapentaconta-37,43(54),44,46(53),47-pentaene-16,1′-cyclobutane]-2,5,8,14,17,20,24,27,30,33,55-undecone] | A (a compound having 10 or more and less than 20 is denoted as A) | AA (a compound having 20 or more is denoted as AA) | pKd ([2]; SPR, Single Cycle Kinetics): 9.74
